Results reported in PMC4791575 (ACS Infectious Diseases, 2016).
Like-named read-outs stand apart in the source and are kept apart here.

Key:
[1] = tested on: T. brucei cells; test: microbe, parasite or virus in culture; assay type: cell-based, Trypanosoma brucei; settings: for EC50: Trypanosoma brucei, read-out: T. brucei pEC50 (within 46%) (converted); for T. brucei pEC50 (within 46%): purchased inhibitors, Table 3
[2] = tested on: HepG2 cells; test: HepG2 host cell toxicity assay; assay type: cell-based; settings: HepG2, purchased inhibitors, Table 3
[3] = tested on: L. major promastigotes; test: microbe, parasite or virus in culture; assay type: cell-based, Leishmania major; settings: for EC50: Leishmania major, read-out: Leishmania Promast pEC50 (converted); for Leishmania Promast pEC50: L. major promastigotes
[4] = tested on: L. major intracellular amastigotes; test: microbe, parasite or virus in culture; assay type: cell-based, Leishmania major; settings: for EC50: Leishmania major, read-out: Leishmania Amast pEC50 (converted); for Leishmania Amast pEC50: L. major intracellular amastigotes
[5] = tested on: T. cruzi intracellular amastigotes (Tulahuen strain); test: microbe, parasite or virus in culture; assay type: cell-based, Trypanosoma cruzi; settings: for EC50: Trypanosoma cruzi, TULAHUEN, read-out: T. cruzi pEC50 (μM) (within 21%) (converted); for T. cruzi pEC50 (within 21%): intracellular amastigotes, Tulahuen strain
[6] = tested on: P. falciparum D6; test: microbe, parasite or virus in culture; assay type: cell-based, Plasmodium falciparum; settings: for EC50: Plasmodium falciparum, D6, read-out: P. falciparum D6 pEC50 (converted); for P. falciparum D6 pEC50: D6 strain
[7] = tested on: P. falciparum W2; test: microbe, parasite or virus in culture; assay type: cell-based, Plasmodium falciparum; settings: for EC50: Plasmodium falciparum, W2, read-out: P. falciparum W2 pEC50 (converted)
[8] = tested on: P. falciparum C235; test: microbe, parasite or virus in culture; assay type: cell-based, Plasmodium falciparum; settings: for EC50: Plasmodium falciparum, read-out: P. falciparum C235 pEC50 (converted)
[9] = tested on: 3T3; test: 3T3 host cell toxicity; assay type: cell-based

C[C@@H](Oc1cc(-c2cnn(C3CCNCC3)c2)cnc1N)c1c(Cl)ccc(F)c1Cl [NEU-838, crizotinib]
T. brucei proliferation activity (in words; active = pEC50 ≥ 6) [1]: potent T. brucei proliferation inhibitors
EC50 [1]: 0.398 µM
host cell tox HepG2 pTC50 [2]: 5.4
EC50 [3]: 0.631 µM
EC50 [4]: 1.58 µM
EC50 [5]: 7.94 µM
EC50 [6]: 0.794 µM
EC50 [7]: 0.0398 µM
EC50 [8]: 0.1 µM
host cell tox 3T3 pTC50 [9]: 4.8

COc1cc(N2CCC(N3CCN(C)CC3)CC2)ccc1Nc1ncc(Cl)c(Nc2ccccc2S(=O)(=O)C(C)C)n1 [NEU-844, TAE684]
EC50 [1]: 0.1 µM
T. brucei proliferation activity (in words; active = pEC50 ≥ 6) ([1]; listed as NVP-TAE684): potent T. brucei proliferation inhibitors
host cell tox HepG2 pTC50 [2]: 5.3
EC50 [3]: 0.316 µM
EC50 [4]: 1.26 µM
EC50 [5]: 5.01 µM
EC50 [6]: 0.501 µM
EC50 [7]: 0.398 µM
EC50 [8]: 0.501 µM
host cell tox 3T3 pTC50 [9]: 4.6

Nc1ncnc2c1c(-c1cccc(OCc3ccccc3)c1)cn2[C@H]1C[C@@H](CN2CCC2)C1 [NEU-967, NVP-AEW5414]
EC50 [1]: 2 µM
host cell tox HepG2 pTC50 [2]: 5.5
EC50 [3]: 0.1 µM
EC50 [4]: 3.98 µM
EC50 [5]: 3.98 µM
EC50 [6]: 1.26 µM
EC50 [7]: 1 µM
EC50 [8]: 1.26 µM
host cell tox 3T3 pTC50 [9]: 4.8

CCCCOc1c(C(=O)c2c(F)cc(C)cc2F)c[nH]c2nncc1-2 [NEU-968, BMS-2652465]
EC50 [1]: 0.501 µM
host cell tox HepG2 pTC50 [2]: <4.4
EC50 [3]: 0.251 µM
EC50 [4]: > 15.8 µM
EC50 [5]: > 50.1 µM
EC50 [6]: 15.8 µM
EC50 [7]: 10 µM
EC50 [8]: 12.6 µM
host cell tox 3T3 pTC50 [9]: <4

CNC(=O)c1nn(C)c2c1C(C)(C)Cc1cnc(Nc3ccc(N4CCN(C)CC4)cc3)nc1-2 [NEU-969, PHA-8481256]
EC50 [1]: 0.0251 µM
host cell tox HepG2 pTC50 [2]: 5.0
EC50 [3]: 0.316 µM
EC50 [4]: 5.01 µM
EC50 [5]: 0.0398 µM
EC50 [6]: 6.31 µM
EC50 [7]: 7.94 µM
EC50 [8]: 6.31 µM
host cell tox 3T3 pTC50 [9]: <4

CCc1cc(Nc2nccc(-c3c(-c4ccc(OC)c(C(=O)Nc5c(F)cccc5F)c4)nc4ccccn34)n2)c(OC)cc1N1CCC(N2CCN(S(C)(=O)=O)CC2)CC1 [NEU-970, GSK1904529A7]
T. brucei pEC50 (within 46%) [1]: 5.9
host cell tox HepG2 pTC50 [2]: <4.4
Leishmania Promast pEC50 [3]: <4.9
Leishmania Amast pEC50 [4]: 5.5
T. cruzi pEC50 (within 21%) [5]: < 4.3
P. falciparum D6 pEC50 [6]: 6.8
P. falciparum W2 pEC50 [7]: 7.0
P. falciparum C235 pEC50 [8]: 6.9
host cell tox 3T3 pTC50 [9]: <4

Nc1nc(Nc2ccc(S(N)(=O)=O)cc2)nn1C(=O)c1c(F)cccc1F [NEU-971, JNJ-77066218]
EC50 [1]: 0.316 µM
host cell tox HepG2 pTC50 [2]: 5.2
EC50 [3]: > 25.1 µM
EC50 [4]: > 15.8 µM
EC50 [5]: > 50.1 µM
EC50 [6]: 2 µM
EC50 [7]: 1 µM
EC50 [8]: 1.26 µM
host cell tox 3T3 pTC50 [9]: <4

COc1cc(OC)c(/C=C/S(=O)(=O)Cc2ccc(OC)c(NCC(=O)O)c2)c(OC)c1 [NEU-973, ON-019109]
EC50 [1]: > 3.16 µM
host cell tox HepG2 pTC50 [2]: <4.4
EC50 [3]: > 25.1 µM
EC50 [4]: > 15.8 µM
EC50 [5]: > 50.1 µM
EC50 [6]: > 20 µM
EC50 [7]: > 20 µM
EC50 [8]: > 20 µM
host cell tox 3T3 pTC50 [9]: <4

CCc1cc2c(cc1N1CCC(N3CCOCC3)CC1)C(C)(C)c1[nH]c3cc(C#N)ccc3c1C2=O [NEU-974, CH542480210]
EC50 [1]: > 3.16 µM
host cell tox HepG2 pTC50 [2]: <4.4
EC50 [3]: 0.126 µM
EC50 [4]: > 15.8 µM
EC50 [5]: > 50.1 µM
EC50 [6]: 3.98 µM
EC50 [7]: > 20 µM
EC50 [8]: > 20 µM
host cell tox 3T3 pTC50 [9]: <4

CCc1cnn2c(NCc3ccc[n+]([O-])c3)cc(N3CCCC[C@H]3CCO)nc12 [NEU-975, dinaciclib]
host cell tox HepG2 pTC50 [2]: <4.4
host cell tox 3T3 pTC50 [9]: <4

C[C@]1(O)C[C@@H](c2nc(-c3ccc4ccc(-c5ccccc5)nc4c3)c3c(N)nccn32)C1 [NEU-976, linsitinib]
EC50 [1]: > 3.16 µM
host cell tox HepG2 pTC50 [2]: 4.5
EC50 [3]: 7.94 µM
EC50 [4]: > 15.8 µM
EC50 [5]: 10 µM
EC50 [6]: 0.501 µM
EC50 [8]: 0.501 µM
host cell tox 3T3 pTC50 [9]: <4

CC[C@H](CO)Nc1nc(NCc2ccccc2)c2ncn(C(C)C)c2n1 [NEU-977, roscovitine]
host cell tox HepG2 pTC50 [2]: 4.5
host cell tox 3T3 pTC50 [9]: <4

Nc1nc(NCCNc2ncc(-c3ncc[nH]3)c(-c3ccc(Cl)cc3Cl)n2)ccc1[N+](=O)[O-] [NEU-978, CHIR-9801414]
T. brucei pEC50 (within 46%) [1]: <5.5
host cell tox HepG2 pTC50 [2]: 4.8
Leishmania Promast pEC50 [3]: 5.2
Leishmania Amast pEC50 [4]: <4.8
T. cruzi pEC50 (within 21%) [5]: < 4.3
P. falciparum D6 pEC50 [6]: <4.7
P. falciparum W2 pEC50 [7]: <4.7
P. falciparum C235 pEC50 [8]: <4.7
host cell tox 3T3 pTC50 [9]: <4

CC[C@@H]1C(=O)N(C)c2cnc(Nc3ccc(C(=O)N[C@H]4CC[C@H](N5CCN(CC6CC6)CC5)CC4)cc3OC)nc2N1C(C)C [NEU-979, volasertib]
EC50 [1]: > 3.16 µM
host cell tox HepG2 pTC50 [2]: 5.5
EC50 [3]: 1.58 µM
EC50 [4]: 7.94 µM
EC50 [5]: 12.6 µM
EC50 [6]: 0.158 µM
EC50 [7]: 0.158 µM
EC50 [8]: 0.158 µM
host cell tox 3T3 pTC50 [9]: 4.6

CC[C@@H]1C(=O)N(C)c2cnc(Nc3ccc(C(=O)NC4CCN(C)CC4)cc3OC)nc2N1C1CCCC1 [NEU-980, BI 253616]
EC50 [1]: 0.631 µM
host cell tox HepG2 pTC50 [2]: 5.6
EC50 [3]: 3.98 µM
EC50 [4]: 7.94 µM
EC50 [5]: 20 µM
EC50 [6]: 0.02 µM
EC50 [7]: 0.01 µM
EC50 [8]: 0.0126 µM
host cell tox 3T3 pTC50 [9]: 4.5

O=C(NC1CCNCC1)c1n[nH]cc1NC(=O)c1c(Cl)cccc1Cl [NEU-982, AT751918]
EC50 [1]: 0.316 µM
host cell tox HepG2 pTC50 [2]: <4.4
EC50 [3]: > 25.1 µM
EC50 [4]: > 15.8 µM
EC50 [5]: 1.26 µM
EC50 [6]: 1.26 µM
EC50 [7]: 0.794 µM
EC50 [8]: 0.316 µM
host cell tox 3T3 pTC50 [9]: <4

CC(C)(C)c1cnc(CSc2cnc(NC(=O)C3CCNCC3)s2)o1 [NEU-984, SNS-03219, 20]
EC50 [1]: 0.126 µM
host cell tox HepG2 pTC50 [2]: <4.4
EC50 [3]: > 25.1 µM
EC50 [4]: > 15.8 µM
EC50 [5]: > 50.1 µM
EC50 [6]: 5.01 µM
EC50 [7]: 3.16 µM
EC50 [8]: 2 µM
host cell tox 3T3 pTC50 [9]: <4

Cc1ncc(-c2ccnc(Nc3ccc(S(C)(=O)=O)cc3)n2)n1C(C)C [NEU-985, AZD543821]
EC50 [1]: 0.0316 µM
host cell tox HepG2 pTC50 [2]: 4.9
EC50 [3]: 0.398 µM
EC50 [4]: 2.51 µM
EC50 [5]: 1.58 µM
EC50 [6]: 1.26 µM
EC50 [7]: 1 µM
EC50 [8]: 1.26 µM
host cell tox 3T3 pTC50 [9]: <4

O=C1NC(=O)C(c2ccccc2[N+](=O)[O-])=C1Nc1ccc(O)c(Cl)c1 [NEU-986, SB 41528622]
host cell tox HepG2 pTC50 [2]: <4.4
host cell tox 3T3 pTC50 [9]: 4.2

CN1CC[C@H](c2c(O)cc(O)c3c(=O)cc(-c4ccccc4Cl)oc23)[C@H](O)C1 [NEU-987, flavopiridol]
EC50 [1]: 0.158 µM
host cell tox HepG2 pTC50 [2]: < 4.4
EC50 [3]: 0.398 µM
EC50 [4]: 3.16 µM
EC50 [5]: 12.6 µM
EC50 [6]: 2 µM
EC50 [7]: 2 µM
EC50 [8]: 1.58 µM
host cell tox 3T3 pTC50 [9]: < 4
